# Experimental data from publication PMC10823475, “Design, Synthesis, and Evaluation of Inhibitors of Hedgehog Acyltransferase” (Journal of Medicinal Chemistry, 2024).
# “And” between values parts separate entries of the source, which are not always exact repeats. Equal values may be shown once.
# Assays:
# purified HHAT = target: T1, purified HHAT (Homo sapiens, UniProt Q5VTY9); test: Acyl-cLIP assay, inhibition of purified HHAT; format: biochemical; details: for LLEAcyl-cLIP: from Acyl-cLIP IC50 and clogDpH7.4; for IC50: purified HHAT, read-out: Acyl-cLIP Assay IC50 (CI95)
# T1 construct: made in house
# Experimental: The inhibitory potency of all 50 compounds against purified HHAT was quantified using the acylation-coupled lipophilic induction of polarization (acyl-cLIP) assay recently developed in our lab, a universally applicable assay for high-throughput analysis of protein–lipid transferases and hydrolases.[31],[40] In brief, in this assay a fluorescently labeled peptide based on the N-terminal sequence of SHH is incubated with N-dodecyl β-D-maltoside (DDM) solubilized purified HHAT, palmitoyl-CoA, and HHAT inhibitors. Binding of the lipidated peptide product to the DDM micelle results in decreased tumbling rate and an increase in polarization of fluorescence emission, enabling facile quantification of HHAT activity. Initially, % HHAT inhibition was determined at 50 μM and 25 μM for all analogues. […] HHAT is a 12-pass TM protein,[14] and we considered whether lipophilicity might bias inhibition; pIC50 values were compared to calculated log D, which indicated no significant correlation (SI, Table S1 and Figure S2). We concluded that lipophilicity is not a general driver of HHAT inhibitory potency.
# The acyl-cLIP assay has been described previously.[40] Briefly, SHH-FAM peptide was diluted in buffer A (100 mM MES, 20 mM NaCl, 1 mM DTT, 1 mM TCEP, 0.1% BSA, pH 6.5) to a concentration of 2 μM. Palmitoyl-CoA (Sigma-Aldrich) was diluted in buffer A to 7.5 μM and recombinant HHAT (obtained by following the published protocol[14]) in buffer B (20 mM HEPES, 350 mM NaCl, 1% DDM, 5% glycerol, pH 7.3) diluted to 44 μg/mL. 1.5 μL of a 50 mM inhibitor DMSO stock was diluted with 18.5 μL of DMSO and further serial diluted (1:1). For each condition, 6 μL of the HHAT working stock and […] of the SHH-peptide working stock were mixed with 3 μL of the corresponding inhibitor concentration or DMSO vehicle. Twelve μL/well of this mixture was split into four wells of a black 384 well plate. To start the reaction, 8 μL of the Pal-CoA working stock were added to each well and fluorescence anisotropy and the total fluorescence recorded on an EnVision Xcite 2104 (PerkinElmer) over 30 min (emission filter 1 = FITC FP P-pol 535; emission filter 2 = FITC S-pol 535; excitation filter: FITC FP 480; measurement height = 6.5 mm; detector gain = 0; high concentration gain). Initial rate constants were determined by linear regression and normalized to DMSO control and samples with buffer B instead of HHAT. IC50 values were extracted from the corresponding dose response curves using a “sigmoidal dose response (variable slope)” model in GraphPad Prism 5 (GraphPad Software, Inc.).
# [1] = MTS assay, cytotoxicity (72 h); format: cell-based; details: human, HEK293a SHH+ cells, 72 h; for CC50 at 72 h: read-out: MTS Assay (HEK293a SHH+) CC50 (CI95)
# Experimental: (§1) The survival of HEK293a SHH^+ cells is independent of HH signaling,[35] therefore, the cytotoxicity of analogues was tested using the MTS assay to investigate off-target toxicity. In this assay, HEK293a SHH^+ cells were treated with DMSO vehicle or varying concentrations of analogues for 72 h. Subsequently, a mixture of 1-methoxy phenazine methosulfate (PMS) and [3-(4,5-dimethylthiazol-2-yl)-5-(3-carboxymethoxyphenyl)-2-(4-sulfophenyl)-2H-tetrazolium] (MTS) was added to enable quantification of cell number via colorimetric analysis. […] Compounds 3, 17, 19, 32, 34, 38, and 45, which all contain a 2-((2-methylbutyl)amino)acetyl, were toxic to HEK293a SHH^+ cells, as were ureas 26, 40, and 41.
# (§2) HEK293a SHH^+ cells were plated at 5000 cells/well in a 96-well plate (Nunc) using a volume of 50 μL/well and cultured for 24 h as described. Cells were treated with 100 μL/well of either DMSO vehicle, Puromycin (2 μg/mL), or stated analogues (0.14–100 μM final) in DMEM supplemented with 10% FBS. After 72 h, 20 μL/well of a mixture of 1-methoxy phenazine methosulfate (PMS) and [3-(4,5-dimethylthiazol-2-yl)-5-(3-carboxymethoxyphenyl)-2-(4-sulfophenyl)-2H-tetrazolium] (MTS) at a ratio of MTS/PMS = 2/0.92 mg/mL in PBS was added and the plates were incubated for 3 h at 37 °C. Subsequently, the absorption at 490 nm was recorded using an EnVision Xcite 2104 (PerkinElmer), and the response was normalized to vehicle control and Puromycin treated samples. Dose response curves were fitted to a “sigmoidal dose response (variable slope)” model using GraphPad Prism 5 (GraphPad Software, Inc.).
# HEK293a SHH+ cells = test: MTS assay, cytotoxicity (72 h); format: cell-based; details: for decrease in cell viability / cell survival: 12.5 μM
# Experimental: as §1, §2
# [2] = test system: HH signaling (HEK293a SHH+ conditioned media on SHH-Light2 cells); test: Light2 dual-luciferase cell-based HH signaling assay (Firefly); details: Firefly luciferase, Light2 cells; read-out: HH signaling inhibition EC50 (CI95)
# Experimental: Subsequently, the effect of analogues on HH signaling was investigated using a cellular luciferase reporter assay. Light2 cells derived from NIH3T3 cells constitutively express Renilla luciferase as an internal control for cell density alongside Firefly luciferase under the control of a HH-responsive Gli promoter.[43] HEK293a SHH^+ cells were incubated with varying inhibitor concentrations and SHH-containing conditioned media transferred to the NIH3T3-Light2 cells to mimic paracrine signaling[30],[35] (Figure 6A).
# The Light2 cell-based signaling assay has been described previously.[35] Briefly, HEK293a SHH^+ cells were plated at 120,000 cells/well of a 12-well plate in a volume of 1 mL/well and cultured as described above. After 24 h, cells were washed with PBS, followed by addition of 1 mL of media containing 0.2% DMSO or varying inhibitor concentrations in DMSO (0.041–30 μM final). Additionally, SHH-Light2 cells were plated at 20,000 cells/well of a 96-well plate in 50 μL media. After another 24 h, 300 μL of the conditioned media were collected from each well of the treated HEK293a SHH^+ cells, centrifuged at 1000g for 10 min to remove detached cells and split into three wells of the SHH-Light2 cells (100 μL/well; 150 μL final volume in each well). The treated Light2 cells were cultured for another 48 h and subsequently washed with PBS. Firefly and Renilla luciferase activity was measured using the Dual-Luciferase reporter system (Promega Corporation, USA). Then 20 μL of 1× passive lysis buffer were added to each well. After 30 min at RT, 5 μL of each lysate were transferred to a white opaque 96-well plate. Then 20 μL/well of luciferase assay reagent II was added and the luminescence immediately recorded using a SpectraMax i3x plate reader (Molecular Devices LLC). Subsequently, 20 μL/well of 1× Stop&Glo substrate in Stop&Glo buffer was added and the luminescence immediately recorded for a second time. Data was evaluated using a “sigmoidal dose response (variable slope)” model in GraphPad Prism 5 (GraphPad Software, Inc.). The luminescence signal of the Firefly luciferase was normalized to the DMSO vehicle (100%) and the unconditioned media (0%) controls.
# [3] = PAMPA parallel artificial membrane permeability assay; details: for recovery at 16 h, 10 µM / Papp at 16 h, 10 μM: PAMPA
# Experimental: Passive diffusion was estimated using the PAMPA method. […] The donor plate was a MultiScreen-IP Plate with 0.45 μm hydrophobe Immobilon-P Membrane (Millipore, #MAIPNTR10) and the acceptor plate was a MultiScreen 96-well Transport Receiver Plate (Millipore, #MATRNPS50). […] Acceptor pH was 7.4. All samples were analyzed against an external, matrix-matched, standard curve by LC-MS/MS with a Waters (Elstree, Herts. UK) Acquity H-class LC system coupled to a Waters TQ-S mass spectrometer. Permeability values (cm/s) were calculated using the following equation: [drawing 2] and VD = volume of donor; VA = volume of acceptor; area = surface area of the membrane · porosity.
# [4] = pH 5, PAMPA Papp pH 5, donor pH 5, 10 µM
# [5] = pH 5, PAMPA Permeability Class pH 5, donor pH 5, 10 µM
# T1 sequence (Q5VTY9 whole entry): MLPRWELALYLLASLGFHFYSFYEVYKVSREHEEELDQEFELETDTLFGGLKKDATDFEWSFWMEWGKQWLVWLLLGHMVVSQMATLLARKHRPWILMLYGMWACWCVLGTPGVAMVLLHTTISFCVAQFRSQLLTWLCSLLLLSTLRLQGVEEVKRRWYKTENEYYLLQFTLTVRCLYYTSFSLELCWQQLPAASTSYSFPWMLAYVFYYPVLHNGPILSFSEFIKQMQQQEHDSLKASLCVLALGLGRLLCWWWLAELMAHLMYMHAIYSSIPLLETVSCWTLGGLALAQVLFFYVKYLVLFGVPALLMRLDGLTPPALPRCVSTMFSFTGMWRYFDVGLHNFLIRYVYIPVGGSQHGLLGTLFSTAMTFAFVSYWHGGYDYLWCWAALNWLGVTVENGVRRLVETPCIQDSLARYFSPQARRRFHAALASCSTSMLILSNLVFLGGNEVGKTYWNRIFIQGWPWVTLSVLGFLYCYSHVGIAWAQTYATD
Structure (SMILES),inhibition at 25 µM (purified HHAT) [%],inhibition at 50 µM (purified HHAT) [%],LLEAcyl-cLIP (purified HHAT),IC50 (purified HHAT),CC50 at 72 h [1] [µM],"viability at 72 h, 12.5 µM [1] [%]","viability at 72 h, 25 µM [1] [%]",toxicity to HEK293a SHH+ cells (HEK293a SHH+ cells),EC50 [2] [µM],other results
CCC(C)CNCC(=O)N1CCc2sccc2C1COc1cccc(C)c1 (stereo not drawn) [Compound 3],52 ± 3,63 ± 4,3.16,1.44 µM,8.4,31 ± 2,12 ± 3,toxic,–,"fold more potent than analogues 19, 32, and 34 (purified HHAT; meta-methyl on 4-position aromatic ring): 2–5 fold; decrease in cell viability / cell survival (HEK293a SHH+ cells): 69%"
C=CC(=O)N1CCc2sccc2C1c1cccc(C)c1 (stereo not drawn) [Compound 16],51 ± 7,62 ± 8,0.66,15 µM,19.8,51 ± 1,34 ± 3,–,2.96,–
CC(=O)N1CCc2sccc2C1c1cccc(C)n1 (stereo not drawn) [Compound 21],72 ± 3,82 ± 3,2.84,13.4 µM,> 100,98 ± 4,94 ± 3,–,5.46,–
Cc1cccc(C2c3ccsc3CCN2C(=O)CNCCC(C)C)n1 (stereo not drawn) [Compound 25],80 ± 5,86 ± 4,3.90,4.62 µM,15.3,74 ± 2,27 ± 4,–,4.25,–
"CCC(C)CNCC(=O)N1CCc2sccc2C1c1ccccc1O (stereo not drawn) [Compound 34, 1-(4-(2-Hydroxyphenyl)-6,7-dihydrothieno[3,2-c]pyridin-5(4H)-yl)-2-((2-methylbutyl)amino)ethan-1-one]",92 ± 1,93 ± 1,3.35,–,6.1,24 ± 1,20 ± 1,toxic,–,–
"CC(C)CCNC(=O)N1CCc2ccccc2C1c1ccccc1 (stereo not drawn) [Compound 40, N-Isopentyl-1-phenyl-3,4-dihydroisoquinoline-2(1H)-carboxamide]",0,4 ± 5,–,> 25 µM,1.8,14 ± 4,12 ± 3,toxic,–,HHAT inhibition in the acyl-cLIP assay (purified HHAT): inactivity
"C=CC(=O)N1CCCCC1c1ccccn1 (stereo not drawn) [Compound 49, 1-(2-(Pyridin-2-yl)piperidin-1-yl)prop-2-en-1-one]",8 ± 1,3 ± 1,–,> 25 µM,> 100,96 ± 2,89 ± 2,–,–,–
"CCC(C)CNCC(=O)N1CCCCC1c1ccccn1 (stereo not drawn) [Compound 50, 2-((2-Methylbutyl)amino)-1-(2-(pyridin-2-yl)piperidin-1-yl)ethan-1-one]",8 ± 1,3 ± 1,–,> 25 µM,> 100,88 ± 2,86 ± 2,–,–,–
"O=c1ccc2ccccc2o1 [Coumarin, reference compound]",–,–,–,–,–,–,–,–,–,"recovery at 16 h, 10 µM ([3]; pH 5): 99%; Papp at 16 h, 10 μM [3, 4]: 124 ×10⁻⁶ cm/s; Papp at 16 h, 10 μM [3, 5]: > 20 ×10⁻⁶ cm/s; recovery at 16 h, 10 µM ([3]; pH 6.5): 99%; recovery at 16 h, 10 µM ([3]; pH 7.4): 114%; PAMPA Papp pH 6.5 ([3]; donor pH 6.5, 10 µM): >eqm; PAMPA Permeability Class pH 6.5 ([3]; donor pH 6.5, 10 µM): >eqm; PAMPA Papp pH 7.4 ([3]; donor pH 7.4, 10 µM): >eqm; PAMPA Permeability Class pH 7.4 ([3]; donor pH 7.4, 10 µM): >eqm"
"CC(C)(C)NCC(O)COc1cccc2c1CC(O)C(O)C2 (stereo not drawn) [Nadolol, reference compound]",–,–,–,–,–,–,–,–,–,"recovery at 16 h, 10 µM ([3]; pH 5): 97%; Papp at 16 h, 10 μM [3, 4]: < 0.4 ×10⁻⁶ cm/s; Papp at 16 h, 10 μM [3, 5]: < 5 ×10⁻⁶ cm/s; Papp at 16 h, 10 μM ([3]; pH 6.5, PAMPA Papp pH 6.5, donor pH 6.5, 10 µM): < 0.4 ×10⁻⁶ cm/s; Papp at 16 h, 10 μM ([3]; pH 6.5, PAMPA Permeability Class pH 6.5, donor pH 6.5, 10 µM): < 5 ×10⁻⁶ cm/s; recovery at 16 h, 10 µM ([3]; pH 7.4): 135%; Papp at 16 h, 10 μM ([3]; pH 7.4, PAMPA Papp pH 7.4, donor pH 7.4, 10 µM): < 0.3 ×10⁻⁶ cm/s; Papp at 16 h, 10 μM ([3]; pH 7.4, PAMPA Permeability Class pH 7.4, donor pH 7.4, 10 µM): < 5 ×10⁻⁶ cm/s"

# Further lines, with some results ahead:
inhibition at 25 µM (purified HHAT) [%],inhibition at 50 µM (purified HHAT) [%],LLEAcyl-cLIP (purified HHAT),IC50 (purified HHAT),Structure (SMILES),CC50 at 72 h [1] [µM],"viability at 72 h, 12.5 µM [1] [%]","viability at 72 h, 25 µM [1] [%]",toxicity to HEK293a SHH+ cells (HEK293a SHH+ cells),EC50 [2] [µM],other results
49 ± 1,72 ± 1,2.73,24 µM and 23.7 µM,CC(=O)N1CCc2sccc2C1c1ccccn1 (stereo not drawn) [Compound 18],> 100,97 ± 2,98 ± 2,–,–,decrease in cell viability / cell survival (HEK293a SHH+ cells): < 30%
68 ± 4,81 ± 2,2.21,11.9 µM,COc1ccccc1C1c2ccsc2CCN1C(C)=O (stereo not drawn) [Compound 31],16.5,60 ± 4,23 ± 1,–,> 30,–
0,27 ± 3,–,> 25 µM,"COCCNC(=O)N1CCc2ccccc2C1c1ccccc1 (stereo not drawn) [Compound 41, N-(2-Methoxyethyl)-1-phenyl-3,4-dihydroisoquinoline-2(1H)-carboxamide]",20.2,83 ± 3,53 ± 2,toxic,–,HHAT inhibition in the acyl-cLIP assay (purified HHAT): inactivity
